Read-outs that look alike come from different tables or passages of the source.

The test system of series [1] is PD1-ss+10aa/Gaussia Luciferase. Description: Dox-Induced PD1-ss-Gluc Assay. Conditions: 24 hr Dox induction, 293FRT/TO cells, read-out: 24 hr Dox Inducible PD1ssGluc 293FRT/TO: Mean IC50. Type of series: cell-based. A digest of the protocol:
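Stable Flp-In 293 T-REx cells carried a doxycycline-inducible construct of Gaussia luciferase fused to the PD1 signal sequence plus 10 amino acids. Cells were plated the day before, then treated with compound dilutions in DMSO/media containing doxycycline at 37 °C, 5% CO2.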

The subject of series [2] is TNFα-FL/Gaussia Luciferase. Description: Dox Induced TNFα-FL-Gluc Assay. Conditions: for IC50: 24 hr Dox induction, 293FRT/TO cells, read-out: 24 hr Dox Inducible TNFaFLGluc 293FRT/TO: Mean IC50; for 24 hr Dox Inducible TNFaFLGluc 293FRT/TO: TNF/PD1: ratio of TNFaFLGluc IC50 to PD1ssGluc IC50. Type of series: cell-based. The gist of the method: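 Hygromycin/blasticidin-selected Flp-In 293 T-REx cells, TNFα-FL/Gaussia luciferase fusion under T-REx control; overnight plating, then compound in DMSO/media with doxycycline at 37 °C, 5% CO2; stereo-undefined structures tested as mixtures.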

The subject of series [3] is HER3-ss+4aa/Gaussia Luciferase. The series can be described thus: Dox-Induced Her3-ss-Gluc Assay. Conditions: 24 hr Dox induction, 293FRT/TO cells, read-out: 24 hr Dox Inducible Her3(ss + 4)Gluc 293FRT/TO: Mean IC50. Type of series: cell-based. The gist of the method:
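Doxycycline-inducible HER3 signal sequence+4aa/Gaussia luciferase construct, stably integrated in Flp-In 293 T-REx cells; compound dilutions applied with doxycycline at 37° C., 5% CO2.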

Series [4] deals with IL-2-FL/Gaussia Luciferase. Description: Dox Induced IL2-FL-Gluc Assay. Conditions: for IC50: 24 hr Dox induction, 293FRT/TO cells, read-out: 24 hr Dox Inducible IL2FLGluc 293FRT/TO: Mean IC50; for 24 hr Dox Inducible IL2FLGluc 293FRT/TO: IL2/PD1: ratio of IL2FLGluc IC50 to PD1ssGluc IC50. Type of series: cell-based. The gist of the method:
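A hygromycin- and blasticidin-resistant 293 T-REx clone carrying inducible IL-2–Gaussia luciferase (full-length IL-2, residues 1-153) serves as the cell system. After overnight plating, the cells get test compounds together with doxycycline in DMSO/media and are incubated at 37° C, 5% CO2.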

The subject of series [5] is multiple myeloma cell line NCI-H929. Description: H929 Cell Viability Assay. Type of series: cell-based, human. Conditions: Homo sapiens, NCI-H929, 48 h, NCI-H929 cells, Celltiter-Glo. The gist of the method:
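A 48-hour compound treatment of cells in 10% FBS RPMI medium was followed by luciferase-based viability quantification.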
For orientation: ATP-based viability assays read luminescence as a measure of living cells.

The test system of series [6] is multiple myeloma cell line U266B1. Description: U266 Cell Viability Assay. Type of series: cell-based, human. Conditions: Homo sapiens, U-266, 48 h, U266B1 cells, Celltiter-Glo. The gist of the method:
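After growth in serum-supplemented RPMI 1640, cells received serially diluted compound in DMSO/media and were kept 48 hours before a CellTiter-Glo luminescence readout.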

Series [7] can be described thus: Liver Microsome Stability Assay (rat). Conditions: rat liver microsomes, with NADPH, 1.0 uM compound.
Experimental: (§1) Stability of a compound was assessed in the presence of liver microsomes from various sources—mouse, rat, monkey and human liver microsomes. 1.0 uM compound, 0.4% DMSO in 0.1 M Potassium Phosphate with 1.0 mg/mL liver microsomes, were incubated at 37° C. with or without 1 mM NADPH. The samples were quenched at 0, and 30 minutes.
Series [8] can be described thus: Liver Microsome Stability Assay (mouse). Conditions: mouse liver microsomes, with NADPH, 1.0 uM compound. On the technique in general: Liver microsomes are a subcellular fraction often used to study metabolism.
Experimental: as §1
A short description of series [9]: Liver Microsome Stability Assay (human). Conditions: human liver microsomes, with NADPH, 1.0 uM compound.
Experimental: as §1
The nature of series [10]: Liver Microsome Stability Assay (monkey). Conditions: monkey liver microsomes, with NADPH, 1.0 uM compound.
Experimental: as §1
Setting [11] is: '<=>' given where both are I.A.

Broadly, the EC50 is the concentration giving half of the maximal effect. For `CC(=O)N1CCC(O[C@@H]2C[C@H](c3csc(NC(=O)c4cccn4Cc4ccncc4)n3)N(c3ccccc3)C2)CC1` [Compound E40, N-(4-((2R,4R)-4-((1-acetylpiperidin-4-yl)oxy)-1-phenylpyrrolidin-2-yl)thiazol-2-yl)-1-(pyridin-4-ylmethyl)-1H-pyrrole-2-carboxamide], the IC50 came out at 0.32 µM in [1] (mean), 2.05 µM in series [2] (mean), 0.645 µM in series [3] (mean) and 0.771 µM in series [4] (mean). The “24 hr Dox Inducible TNFaFLGluc 293FRT/TO: TNF/PD1” value in series [2] (setting [11]) was found to be 6.42. Moreover, the “24 hr Dox Inducible IL2FLGluc 293FRT/TO: IL2/PD1” value in series [4] (setting [11]) was 2.4. For the same compound, the results for the EC50 in series [5] and in series [6] were 6.73 µM and above 25 µM, respectively. Moreover, in [7], the “Liver Microsome Stability (Multiple Species): Rat - % Remaining after 30 min w/NADPH” value was determined as 1.43%. Further, in series [8], the “Liver Microsome Stability (Multiple Species): Mouse - % Remaining after 30 min w/NADPH” value stood at 2.75%. In series [9], the “Liver Microsome Stability (Multiple Species): Human - % Remaining after 30 min w/NADPH” value is 0.43%. In series [10], the “Liver Microsome Stability (Multiple Species): Monkey - % Remaining after 30 min w/NADPH” value is 0.1%.
`N#CCCn1cnc(/C=C/c2csc(NC(=O)c3cccn3Cc3ccnc(F)c3)n2)c1` [Compound B108, (E)-N-(4-(2-(1-(2-cyanoethyl)-1H-imidazol-4-yl)vinyl)thiazol-2-yl)-1-((2-fluoropyridin-4-yl)methyl)-1H-pyrrole-2-carboxamide]: the IC50 is 6.04 µM in series [1], above 25 µM in series [2], above 25 µM in [3] and above 25 µM in [4]. In addition, in series [2], the “24 hr Dox Inducible TNFaFLGluc 293FRT/TO: TNF/PD1” value is reported as above 4.14. In addition, the “24 hr Dox Inducible IL2FLGluc 293FRT/TO: IL2/PD1” value in [4] was above 4.1. The concentration giving a half-maximal response (EC50) in series [5] and in series [6] was above 25 µM each time. For the same compound, the “Liver Microsome Stability (Multiple Species): Rat - % Remaining after 30 min w/NADPH” value in series [7] is on record as 23.9%. In addition, in series [8], the “Liver Microsome Stability (Multiple Species): Mouse - % Remaining after 30 min w/NADPH” value came to 55.7%. The “Liver Microsome Stability (Multiple Species): Human - % Remaining after 30 min w/NADPH” value in [9] stood at 0.43%. For the same compound, the “Liver Microsome Stability (Multiple Species): Monkey - % Remaining after 30 min w/NADPH” value in series [10] stood at 0.69%.
In the case of `COc1cc(N2CCC[C@@H]2c2csc(NC(=O)c3cccn3Cc3ccnc(F)c3)n2)ccc1OC1CCN(C(C)=O)CC1` [Compound A129, (R)-N-(4-(1-(4-((1-acetylpiperidin-4-yl)oxy)-3-methoxyphenyl)pyrrolidin-2-yl)thiazol-2-yl)-1-((2-fluoropyridin-4-yl)methyl)-1H-pyrrole-2-carboxamide], the IC50 came to 0.00958 µM in [1], 0.303 µM in [2], 0.0155 µM in [3] and 0.0212 µM in series [4]. For the same compound, the “24 hr Dox Inducible TNFaFLGluc 293FRT/TO: TNF/PD1” value in series [2] was found to be 31.6. In addition, in series [4], the “24 hr Dox Inducible IL2FLGluc 293FRT/TO: IL2/PD1” value is recorded as 2.2. The figures for the EC50 in series [5] and in series [6] were 0.398 µM and above 25 µM, respectively. The “Liver Microsome Stability (Multiple Species): Rat - % Remaining after 30 min w/NADPH” value in series [7] is given as 0.45%. Further, the “Liver Microsome Stability (Multiple Species): Mouse - % Remaining after 30 min w/NADPH” value in series [8] was determined as 6.21%. The “Liver Microsome Stability (Multiple Species): Human - % Remaining after 30 min w/NADPH” value in series [9] came out at 15.7%. Also, the “Liver Microsome Stability (Multiple Species): Monkey - % Remaining after 30 min w/NADPH” value in series [10] is 8.34%.
Take `O=C(Nc1nc(/C=C/c2ccc3c(n2)CCCC3)cs1)c1cccn1Cc1ccnc(F)c1` [Compound B60, (E)-1-((2-fluoropyridin-4-yl)methyl)-N-(4-(2-(5,6,7,8-tetrahydroquinolin-2-yl)vinyl)thiazol-2-yl)-1H-pyrrole-2-carboxamide]: the IC50 in [1] is 0.14 µM; in [2], above 25 µM; in series [3], 0.725 µM; in series [4], 1.75 µM. Also, in series [2], the “24 hr Dox Inducible TNFaFLGluc 293FRT/TO: TNF/PD1” value is listed as above 179. Further, the “24 hr Dox Inducible IL2FLGluc 293FRT/TO: IL2/PD1” value in series [4] was found to be 13. For the same compound, the 50% effective concentration (EC50) in series [5] was 12.8 µM; in [6], 15.8 µM. In addition, the “Liver Microsome Stability (Multiple Species): Rat - % Remaining after 30 min w/NADPH” value in [7] is listed as 1.16%. Also, in series [8], the “Liver Microsome Stability (Multiple Species): Mouse - % Remaining after 30 min w/NADPH” value stood at 0.45%. In addition, the “Liver Microsome Stability (Multiple Species): Human - % Remaining after 30 min w/NADPH” value in [9] was 0.33%. For the same compound, the “Liver Microsome Stability (Multiple Species): Monkey - % Remaining after 30 min w/NADPH” value in series [10] came to 2.65%.

(Values after patent publication US20230286973A1, “PROTEIN SECRETION INHIBITORS” (KEZAR LIFE SCIENCES, priority 2020, published 2023).)
